Laboratory results reported in patent US20040029847A1 (priority 2003, published 2004).

Assays:
hERβ [1] = details: relative binding affinity, estradiol = 100; cited from earlier work
[2] = test system: estrogen receptor preparations from rat prostates; test: Competitive binding with 3H-estradiol to estrogen receptor from rat prostate cytosol
hERβ [3] = test: Relative binding affinity (RBA) to hERβ, cited from Kuiper et al.; set-up: species or system human; details: quotient of RBA to hERβ and hERα
Text: In this case, it is assumed that ERβ predominates in the rat prostates over ERα, and ERα predominates in rat uteri over ERβ.

| Molecule | hERβ RBA* (hERβ [1]) | Rat prost. ER(RBA) ([2]; rat prostate cytosol, 3H-estradiol as ligand, estradiol = 100) | prost. ER/uterus ER ([2]; ratio of RBA at rat prostate ER to rat uterus ER) | ERβ/ERα (hERβ [3]) |
| --- | --- | --- | --- | --- |
| C[C@]12CC[C@@H]3c4ccc(O)cc4CC[C@H]3[C@@H]1C[C@@H](O)[C@@H]2O [Estriol] | 21 |  |  |  |
| Estradiol | 100 | 100 | 1 | 1 |
